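Tested at 5 concentrations; 48 h exposure; 96-well plates; endpoints linearly interpolated, else capped at highest concentration. GI50 is the concentration that inhibits growth by half.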 Activity calls are given as the source filed them. No stated cut-off is given here; in the data, active = GI50 up to about 1.1 µM and inactive = higher. Peptide text beside a SMILES is read from it. * marks the point of attachment. Trt = c1ccc(C(c2ccccc2)(c2ccccc2)*)cc1; Cbz = O=C(OCc1ccccc1)*
Columns and labels:
Test in all cases: NCI-60 cell line screen, 48 h
CCRF-CEM = test system: CCRF-CEM
HT-29 = test system: HT-29
IGROV-1 = test system: IGROV-1
MDA-MB-231 = test system: MDA-MB-231
MOLT-4 = test system: MOLT-4
Malme-3M = test system: Malme-3M
NCI-H226 = test system: NCI-H226
OVCAR-3 = test system: OVCAR-3
OVCAR-5 = test system: OVCAR-5
SF-268 = test system: SF-268
SF-295 = test system: SF-295
SF-539 = test system: SF-539
SK-MEL-2 = test system: SK-MEL-2
SK-MEL-5 = test system: SK-MEL-5
SNB-75 = test system: SNB-75
SR = test system: SR
TK-10 = test system: TK-10
UACC-62 = test system: UACC-62

Row | SMILES | GI50 (CCRF-CEM) | GI50 (HT-29) | GI50 (IGROV-1) | GI50 (MDA-MB-231) | GI50 (MOLT-4) | GI50 (Malme-3M) | GI50 (NCI-H226) | GI50 (OVCAR-3) | GI50 (OVCAR-5) | GI50 (SF-268) | GI50 (SF-295) | GI50 (SF-539) | GI50 (SK-MEL-2) | GI50 (SK-MEL-5) | GI50 (SNB-75) | GI50 (SR) | GI50 (TK-10) | GI50 (UACC-62)
1 | O=C(O)CC1(C(=O)O)CCCCC1 | > 100 µM (inactive) | > 100 µM (inactive) | > 100 µM (inactive) | > 100 µM (inactive) | > 100 µM (inactive) | > 100 µM (inactive) | > 100 µM (inactive) | > 100 µM (inactive) | > 100 µM (inactive) | > 100 µM (inactive) | > 100 µM (inactive) | > 100 µM (inactive) | > 100 µM (inactive) | > 100 µM (inactive) | > 100 µM (inactive) | > 100 µM (inactive) | > 100 µM (inactive) | > 100 µM (inactive)
2 | O=C(c1ccccc1)c1c(C(F)(F)F)[n+]([O-])c2cc(Cl)c(Cl)cc2[n+]1[O-] | 0.467 µM (active) | 0.473 µM (active) | 0.473 µM (active) | 0.229 µM (active) | 0.643 µM (active) | 1.72 µM (inactive) | 3.02 µM (inactive) | 0.403 µM (active) | 1.69 µM (inactive) | 0.671 µM (active) | 3.21 µM (inactive) | 1.5 µM (inactive) | 3.32 µM (inactive) | 2 µM (inactive) | 1.31 µM (inactive) | 0.175 µM (active) | 1.07 µM (active) | 3.97 µM (inactive)
3 | O=C1CC(=O)NC(NNS(=O)(=O)c2ccc(Cl)cc2)=N1 | 63.1 µM (inactive) | > 100 µM (inactive) | > 100 µM (inactive) | > 100 µM (inactive) | > 100 µM (inactive) | > 100 µM (inactive) | > 100 µM (inactive) | > 100 µM (inactive) | > 100 µM (inactive) | > 100 µM (inactive) | > 100 µM (inactive) | > 100 µM (inactive) | > 100 µM (inactive) | > 100 µM (inactive) | > 100 µM (inactive) | > 100 µM (inactive) | > 100 µM (inactive) | > 100 µM (inactive)
4 | COC(=O)C1Cc2cc3c(cc2C1=O)CCC3 (stereo not given) | 92.7 µM (inactive) | > 100 µM (inactive) | > 100 µM (inactive) | > 100 µM (inactive) | 68.7 µM (inactive) | > 100 µM (inactive) | > 100 µM (inactive) | > 100 µM (inactive) | > 100 µM (inactive) | > 100 µM (inactive) | > 100 µM (inactive) | > 100 µM (inactive) | > 100 µM (inactive) | > 100 µM (inactive) | > 100 µM (inactive) | > 100 µM (inactive) | > 100 µM (inactive) | > 100 µM (inactive)
5 | CC(=O)C1(C)CC(C#N)(C#N)C(C#N)=C1N (stereo not given) | > 100 µM (inactive) | > 100 µM (inactive) | > 100 µM (inactive) | > 100 µM (inactive) | > 100 µM (inactive) | > 100 µM (inactive) | > 100 µM (inactive) | > 100 µM (inactive) | > 100 µM (inactive) | > 100 µM (inactive) | > 100 µM (inactive) | > 100 µM (inactive) | > 100 µM (inactive) | > 100 µM (inactive) | > 100 µM (inactive) | 56.2 µM (inactive) | > 100 µM (inactive) | > 100 µM (inactive)
6 | N#Cc1c(O)c(/C=N/c2ccc(Cl)cc2)c(=O)n2c1[nH]c1ccccc12 | > 100 µM (inactive) | > 100 µM (inactive) | > 100 µM (inactive) | > 100 µM (inactive) | > 100 µM (inactive) | > 100 µM (inactive) | > 100 µM (inactive) | > 100 µM (inactive) | > 100 µM (inactive) | > 100 µM (inactive) | > 100 µM (inactive) | > 100 µM (inactive) | > 100 µM (inactive) | > 100 µM (inactive) | > 100 µM (inactive) | > 100 µM (inactive) | > 100 µM (inactive) | > 100 µM (inactive)
7 | CCOC(=O)N(C)C(=C(F)F)C(F)(F)F | 19.8 µM (inactive) | 27 µM (inactive) | 21.2 µM (inactive) | 28.5 µM (inactive) | 21.7 µM (inactive) | 14.6 µM (inactive) | 19.2 µM (inactive) | 36 µM (inactive) | 35.5 µM (inactive) | 25.2 µM (inactive) | 57.5 µM (inactive) | 24.5 µM (inactive) | 16 µM (inactive) | 15.7 µM (inactive) | 29.5 µM (inactive) | 3.95 µM (inactive) | 27.8 µM (inactive) | > 10 µM (inactive)
8 | N#C/C(N)=C(\C#N)NC(=O)C(=O)N/C(C#N)=C(\N)C#N | 77.6 µM (inactive) | > 100 µM (inactive) | > 100 µM (inactive) | > 100 µM (inactive) | 63.1 µM (inactive) | 59.6 µM (inactive) | > 100 µM (inactive) | 13 µM (inactive) | > 100 µM (inactive) | > 100 µM (inactive) | 57.8 µM (inactive) | > 100 µM (inactive) | > 100 µM (inactive) | > 100 µM (inactive) | 29.3 µM (inactive) | 58.2 µM (inactive) | > 100 µM (inactive) | > 100 µM (inactive)
9 | Cc1cc(C)nc(NC(=S)Nc2ccc(Cl)cc2)c1 | > 100 µM (inactive) | > 100 µM (inactive) | 65.8 µM (inactive) | 74.8 µM (inactive) | > 100 µM (inactive) | 34.8 µM (inactive) | 27.8 µM (inactive) | > 100 µM (inactive) | 29.2 µM (inactive) | 21.3 µM (inactive) | 43.1 µM (inactive) | 53.2 µM (inactive) | > 100 µM (inactive) | > 100 µM (inactive) | 11.9 µM (inactive) | > 100 µM (inactive) | 33.7 µM (inactive) | > 100 µM (inactive)
10 | Oc1nc2cc(Cl)ccc2nc1/C(=N\Nc1ccccc1)C(O)c1ccc2c(c1)OCO2 (stereo not given) | > 100 µM (inactive) | > 100 µM (inactive) | > 100 µM (inactive) | > 100 µM (inactive) | > 100 µM (inactive) | > 100 µM (inactive) | > 100 µM (inactive) | > 100 µM (inactive) | > 100 µM (inactive) | > 100 µM (inactive) | > 100 µM (inactive) | > 100 µM (inactive) | > 100 µM (inactive) | > 100 µM (inactive) | > 100 µM (inactive) | > 100 µM (inactive) | > 100 µM (inactive) | > 100 µM (inactive)
11 | O=C(NC(N1CCN(c2cc3c(cc2F)c(=O)c(C(=O)O)cn3C2CC2)CC1)(C(F)(F)F)C(F)(F)F)c1ccccc1 | 24.7 µM (inactive) | 24.1 µM (inactive) | 36.3 µM (inactive) | 22.2 µM (inactive) | 26.1 µM (inactive) | 36.6 µM (inactive) | 34.1 µM (inactive) | 43.5 µM (inactive) | 26.7 µM (inactive) | 40.9 µM (inactive) | 40.6 µM (inactive) | 22 µM (inactive) | 34.9 µM (inactive) | 26 µM (inactive) | 33.6 µM (inactive) | 29.8 µM (inactive) | 27.4 µM (inactive) | 33.3 µM (inactive)
12 | C(#CP(c1ccccc1)c1ccccc1)P(C#CP(c1ccccc1)c1ccccc1)c1ccccc1 | > 100 µM (inactive) | > 100 µM (inactive) | > 100 µM (inactive) | > 100 µM (inactive) | > 100 µM (inactive) | > 100 µM (inactive) | > 100 µM (inactive) | > 100 µM (inactive) | 1.63 µM (inactive) | > 100 µM (inactive) | 5.9 µM (inactive) | > 100 µM (inactive) | > 100 µM (inactive) | > 100 µM (inactive) | > 100 µM (inactive) | > 100 µM (inactive) | > 100 µM (inactive) | > 100 µM (inactive)
13 | O=C(O)c1ccc(NNC(=O)c2cccc3c(=O)c4ccccc4[nH]c23)cc1 | 66.2 µM (inactive) | > 100 µM (inactive) | > 100 µM (inactive) | 75.3 µM (inactive) | 78.9 µM (inactive) | 97.9 µM (inactive) | > 100 µM (inactive) | > 100 µM (inactive) | > 100 µM (inactive) | > 100 µM (inactive) | > 100 µM (inactive) | > 100 µM (inactive) | > 100 µM (inactive) | 55.5 µM (inactive) | > 100 µM (inactive) | 93.5 µM (inactive) | > 100 µM (inactive) | > 100 µM (inactive)
14 | O=C1CCCCC(=O)OC2(CCCCC2=O)CC1 (stereo not given) | > 100 µM (inactive) | > 100 µM (inactive) | > 100 µM (inactive) | > 100 µM (inactive) | > 100 µM (inactive) | > 100 µM (inactive) | > 100 µM (inactive) | > 100 µM (inactive) | > 100 µM (inactive) | > 100 µM (inactive) | > 100 µM (inactive) | > 100 µM (inactive) | > 100 µM (inactive) | > 100 µM (inactive) | 5.82 µM (inactive) | > 100 µM (inactive) | > 100 µM (inactive) | > 100 µM (inactive)
15 | COC(=O)C(CO)NC(=O)C(CSC(c1ccccc1)(c1ccccc1)c1ccccc1)NC(=O)OCc1ccccc1 (stereo not given) (Cbz-Cys(Trt)-Ser-OMe; configuration not given here) | 0.0398 µM (active) | 11.4 µM (inactive) | 16.8 µM (inactive) | 13.8 µM (inactive) | 0.61 µM (active) | 14.5 µM (inactive) | 12.2 µM (inactive) | 13.6 µM (inactive) | 17.7 µM (inactive) | 17.7 µM (inactive) | 17.1 µM (inactive) | 12.1 µM (inactive) | 16.9 µM (inactive) | 15.1 µM (inactive) | 17.6 µM (inactive) | 0.158 µM (active) | 24.5 µM (inactive) | 12.1 µM (inactive)
